From ChEMBL document CHEMBL1201862, “PubChem BioAssay data set” (2004)
Activity calls are given as the source filed them.

Assays:
[1] = target: T1, Low molecular weight phosphotyrosine protein phosphatase (Homo sapiens, UniProt P24666); test: inhibition of LMPTP-A enzymatic activity – biochemical, OMFP substrate, fluorescence intensity, set 2, dose response (AID 743307); type: functional
T1 sequence (P24666 whole entry): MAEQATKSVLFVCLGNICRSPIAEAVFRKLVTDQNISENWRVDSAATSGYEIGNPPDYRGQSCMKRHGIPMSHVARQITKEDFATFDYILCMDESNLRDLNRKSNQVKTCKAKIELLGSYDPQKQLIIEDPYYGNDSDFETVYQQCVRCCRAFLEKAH

[2] = target: T1, Low molecular weight phosphotyrosine protein phosphatase; test: inhibition of human LMPTP enzyme activity – biochemical, absorbance, pNPP substrate, LMPTP-A isoform, set 2, orthogonal assay, dose response (AID 743308); type: functional
[3] = antimalarial activity against Dd2 parasites – SYBR Green fluorescence, erythrocytes, dry powder, set 2, dose response (AID 1159574); type: functional, cell-based
[4] = target: Induced myeloid leukemia cell differentiation protein Mcl-1 (Homo sapiens, UniProt Q07820); type: functional
Sequence of Induced myeloid leukemia cell differentiation protein Mcl-1 (Q07820 whole entry): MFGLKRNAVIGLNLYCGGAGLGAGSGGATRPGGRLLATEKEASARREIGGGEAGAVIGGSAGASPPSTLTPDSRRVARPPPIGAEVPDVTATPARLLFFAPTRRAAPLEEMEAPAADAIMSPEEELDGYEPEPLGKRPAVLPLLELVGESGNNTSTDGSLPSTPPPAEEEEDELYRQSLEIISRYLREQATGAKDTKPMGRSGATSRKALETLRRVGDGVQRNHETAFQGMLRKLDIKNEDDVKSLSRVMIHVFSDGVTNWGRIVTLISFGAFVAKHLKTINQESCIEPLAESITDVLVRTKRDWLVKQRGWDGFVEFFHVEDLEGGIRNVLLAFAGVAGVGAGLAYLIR

Estrogen receptor beta [5] = target: T2, Estrogen receptor beta (Homo sapiens, UniProt Q92731);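 further: recombinant ER-beta bound to coactivator SRC1 peptide in presence of estradiol agonist; inhibitors block coactivator peptide binding and lower the FRET signal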
T2 sequence (Q92731 whole entry, the tested form may be a part): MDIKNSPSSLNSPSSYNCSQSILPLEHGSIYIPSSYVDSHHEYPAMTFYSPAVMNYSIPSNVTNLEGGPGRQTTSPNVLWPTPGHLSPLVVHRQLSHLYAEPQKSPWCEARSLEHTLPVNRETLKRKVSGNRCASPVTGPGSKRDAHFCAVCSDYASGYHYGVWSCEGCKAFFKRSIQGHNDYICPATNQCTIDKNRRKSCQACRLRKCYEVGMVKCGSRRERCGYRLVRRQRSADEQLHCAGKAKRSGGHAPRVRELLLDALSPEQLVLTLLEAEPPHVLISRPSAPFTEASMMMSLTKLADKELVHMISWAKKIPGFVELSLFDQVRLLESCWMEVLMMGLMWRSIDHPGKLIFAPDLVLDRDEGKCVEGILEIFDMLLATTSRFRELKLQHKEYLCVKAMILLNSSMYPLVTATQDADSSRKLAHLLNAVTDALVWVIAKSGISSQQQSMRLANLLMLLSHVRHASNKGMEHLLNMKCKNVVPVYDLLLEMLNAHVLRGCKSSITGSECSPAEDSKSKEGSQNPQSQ

[6] = target: T3, Carboxy-terminal domain RNA polymerase II polypeptide A small phosphatase 1 (Homo sapiens, UniProt Q9GZU7); test: CTDSP1 inhibitors, concentration-response, biochemical, absorbance readout, ultra-high-throughput screen actives (AID 540297); type: functional
T3 sequence (Q9GZU7 whole entry): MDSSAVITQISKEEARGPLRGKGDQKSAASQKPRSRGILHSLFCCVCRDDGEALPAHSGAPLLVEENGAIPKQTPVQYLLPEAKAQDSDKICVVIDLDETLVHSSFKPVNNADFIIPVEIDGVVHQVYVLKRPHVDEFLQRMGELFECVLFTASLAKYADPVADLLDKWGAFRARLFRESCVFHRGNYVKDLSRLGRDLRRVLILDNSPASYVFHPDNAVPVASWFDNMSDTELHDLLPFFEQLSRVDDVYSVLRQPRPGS

[7] = IC50 of Artemis nuclease activity blockers – biochemical, fluorescence intensity, dose response (AID 720701); type: functional;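 further: Artemis endonuclease enzyme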
[8] = target: Sphingosine 1-phosphate receptor 2 (Homo sapiens, UniProt O95136); test: Dose Response Cell Based Assay for Agonists of the S1P2 Receptor. [Related pubchem assays: 729, 736, 843 ]; type: functional
Sequence of Sphingosine 1-phosphate receptor 2 (O95136 whole entry): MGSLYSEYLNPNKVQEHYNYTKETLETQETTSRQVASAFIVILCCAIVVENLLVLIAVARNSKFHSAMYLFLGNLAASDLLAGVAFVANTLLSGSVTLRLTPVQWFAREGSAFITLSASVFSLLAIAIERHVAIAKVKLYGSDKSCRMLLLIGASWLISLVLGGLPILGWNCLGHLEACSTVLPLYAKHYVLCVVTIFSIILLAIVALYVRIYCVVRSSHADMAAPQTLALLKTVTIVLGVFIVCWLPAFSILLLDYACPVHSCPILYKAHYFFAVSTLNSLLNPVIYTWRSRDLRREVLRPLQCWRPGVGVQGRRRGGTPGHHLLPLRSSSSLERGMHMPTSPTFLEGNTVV

[9] = reduced cellular PGC1a acetyl-lysine signal – cell-based, cherry-picked samples, dose response (AID 720514); type: functional;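 further: potency may reflect raised or lowered acetylation signal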
[10] = viability loss in A549 lung cells – cell-based, 24 h, CellTiter-Glo luminescence, cherry-picks, cytotoxicity control, dose response (AID 1053115); type: functional; details: A549, 24 h
[11] = P. falciparum Dd2 growth inhibitors, dose response, SYBR Green, cherry-picked samples (AID 1159567); type: functional, cell-based
[12] = toxicity to human hepatoma HepG2 cells – cell-based, cherry-picked samples, cytotoxicity control, dose response (AID 1159577); type: functional
[13] = target: NAD-dependent protein deacylase sirtuin-5, mitochondrial (Homo sapiens, UniProt Q9NXA8); test: sirtuin-5 deacylation blockers, concentration series – biochemical, fluorescence imaging, cherry-pick, set 5, dose response (AID 720591);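 further: desuccinylation of succinyl peptide AMC substrate read as fluorescence after trypsin release; potency of inhibitors that lower fluorescence and may act on trypsin instead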
Sequence of NAD-dependent protein deacylase sirtuin-5, mitochondrial (Q9NXA8 whole entry): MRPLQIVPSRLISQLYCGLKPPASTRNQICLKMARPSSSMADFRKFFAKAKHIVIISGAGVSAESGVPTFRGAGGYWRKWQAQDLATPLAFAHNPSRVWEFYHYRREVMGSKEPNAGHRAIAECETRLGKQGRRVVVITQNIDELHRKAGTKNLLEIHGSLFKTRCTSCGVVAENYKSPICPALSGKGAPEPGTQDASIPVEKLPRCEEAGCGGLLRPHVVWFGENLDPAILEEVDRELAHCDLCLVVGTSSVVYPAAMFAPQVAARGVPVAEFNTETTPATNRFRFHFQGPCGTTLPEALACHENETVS

Estrogen receptor beta [14] = target: T2, Estrogen receptor beta; test: blockers of SRC-3 recruitment to ERβ – biochemical, ELISA, streptavidin-HRP readout, orthogonal assay, confirmation (AID 1060)
[15] = target: E3 ubiquitin-protein ligase UHRF1 (Homo sapiens, UniProt Q96T88); test: Counterscreen for inhibitors of 5-meCpG-binding domain protein 2 (MBD2): TRFRET-based biochemical high throughput dose response assay to identify inhibitors of binding of ubiquitin-like with PHD and ring finger domains 1 (UHRF1) to methylated oligonucleotide.
Sequence of E3 ubiquitin-protein ligase UHRF1 (Q96T88 whole entry, the tested form may be a part): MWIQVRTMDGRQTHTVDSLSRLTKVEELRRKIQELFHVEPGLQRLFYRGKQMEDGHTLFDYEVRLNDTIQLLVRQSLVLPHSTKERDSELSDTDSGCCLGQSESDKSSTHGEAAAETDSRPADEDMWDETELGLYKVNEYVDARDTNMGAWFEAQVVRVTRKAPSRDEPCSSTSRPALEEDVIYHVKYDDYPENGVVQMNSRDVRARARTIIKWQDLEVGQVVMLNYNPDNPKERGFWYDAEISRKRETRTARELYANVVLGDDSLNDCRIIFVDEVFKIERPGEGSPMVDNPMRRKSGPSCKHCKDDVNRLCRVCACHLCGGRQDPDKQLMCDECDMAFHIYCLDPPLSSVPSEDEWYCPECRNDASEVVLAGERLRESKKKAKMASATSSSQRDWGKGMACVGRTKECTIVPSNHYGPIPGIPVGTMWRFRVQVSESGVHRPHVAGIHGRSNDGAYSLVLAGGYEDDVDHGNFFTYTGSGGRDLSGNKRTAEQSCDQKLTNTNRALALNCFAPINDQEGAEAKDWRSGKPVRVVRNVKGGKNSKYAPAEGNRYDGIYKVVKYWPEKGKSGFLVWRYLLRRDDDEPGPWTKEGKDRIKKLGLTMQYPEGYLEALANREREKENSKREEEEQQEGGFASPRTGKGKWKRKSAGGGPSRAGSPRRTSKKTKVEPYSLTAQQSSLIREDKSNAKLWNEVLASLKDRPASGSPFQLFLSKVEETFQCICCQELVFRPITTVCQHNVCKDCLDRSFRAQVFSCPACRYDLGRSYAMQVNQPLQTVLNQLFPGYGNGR

[16] = Luminescence Cell-Based Dose Response HTS to Identify Activators of Luciferase Translation or Activity in H4 […] Cells. [Related pubchem assays: 1829 (Project Summary), 1814 (Primary HTS)]; type: functional
[17] = Luminescence Cell-Based Dose Confirmation HTS to Identify Activators of 5'UTR Stem-Loop Driven Alpha-Synuclein mRNA Translation in H4 Neuroglioblastoma Cells. [Related pubchem assays: 1829 (Project Summary), 1814 (Primary HTS)]; type: functional
Transthyretin = Transthyretin (Homo sapiens, UniProt P02766); test: Luminescence-based cell-based high throughput dose response assay to identify activators of Transthyretin (TTR) transcription.; type: functional
H4 = test: Luminescence Cell-Based Dose Response HTS to Identify Activators of 5'UTR Stem-Loop Driven Prion Protein mRNA Translation in H4 Neuroglioblastoma Cells. [Related pubchem assays: 1829 (Project Summary), 1814 (Primary HTS)]; type: functional; details: Homo sapiens

SMILES: Fc1cccc(-c2cc(NCCCN3CCCCC3)c3ccccc3n2)c1
- IC50 [1]: 1.84 µM (active)
- IC50 [2]: 4 µM (active)

SMILES: COc1ccc(S(=O)(=O)N(C)C[C@@H]2OCc3ccccc3-c3c(n(C)c4ccccc34)C(=O)N([C@@H](C)CO)C[C@H]2C)cc1
- AC50 [3]: 2.27 µM (active)

SMILES: Cc1nc2c(c(=O)n1CCC1=CCCCC1)c1nc3ccccc3nc1n2/N=C/c1ccco1
- IC50 [4]: 4.9 µM (active)
- IC50 (Estrogen receptor beta [5]): > 50 µM (not active)
- IC50 [6]: 10.1 µM (active)
- IC50 [7]: 18.5 µM (active)

SMILES: O=C(NCC1(c2ccccc2)CCCC1)C(=O)N1CCOCC1
- EC50 [8]: > 50 µM (not active)

SMILES: COc1cc(CN2C[C@@H]3N[C@H](C2)[C@@H]3c2ccc(-c3cccc(OC)c3)cc2)cc(OC)c1
- AC50 [9]: 9.18 µM (active)

SMILES: OC[C@@H]1Nc2ccc(-c3cccc(F)c3)cc2[C@@H]2[C@H]1CCN2Cc1ccc(F)cc1
- AC50 [10]: 52 µM (active)
- AC50 [11]: 5.68 µM (active)
- AC50 [12]: 17.8 µM (active)

SMILES: O=C(O)CCNC(=O)c1ccc(NC(=O)Cc2ccc(Cl)cc2)cc1
- AC50 [13]: 18.8 µM (active)

SMILES: Cc1onc(-c2ccccc2Cl)c1C(=O)NCc1ccco1
- IC50 (Estrogen receptor beta [14]): > 50 µM (not active)
- IC50 (Estrogen receptor beta [5]): > 50 µM (not active)
- IC50 [15]: > 43.8 µM (inactive)

SMILES: COc1cccc(-c2csc(NC(=O)C3CC3)n2)c1
- EC50 [16]: 33.5 µM (active)
- EC50 [17]: 94 µM (active)
- EC50 (Transthyretin): > 167 µM (inactive)
- EC50 (H4): > 120 µM (not active)
